The results in this text go back to ChEMBL document CHEMBL4513141, “CO-ADD screening of NIH (USA) - Clinical Collection” (2021).

The subject of one experiment is HEK293. Kind of experiment: cells. Type of experiment: functional, Homo sapiens, ATCC CRL1573. The settings on record: ASSAY_TEST Inhibition of Cell Viability, detection method Resazurin, Fluorescence (ex560/em590), MEDIA DMEM with 10% FBS, plate type 384well, TC, CORNING #3712, time 18 hr.
In another experiment the test system is Staphylococcus aureus. The settings on record: ASSAY_TEST Inhibition of Bacterial Growth; detection method Absorption (OD600); MEDIA CAMHB; plate type 384well; NBS; CORNING #3640; time 18 hr.
Experiment [1] concerns Escherichia coli. The settings on record: ASSAY_TEST Inhibition of Bacterial Growth; detection method Absorption (OD600); MEDIA CAMHB; plate type 384well; NBS; CORNING #3640; time 18 hr.
Description: (§1) Antibacterial activity against Escherichia coli ATCC 25922 (CO-ADD:GN_001); MIC in CAMBH media using NBS plates, by OD(600)
The subject of another experiment is Acinetobacter baumannii. The settings on record: ASSAY_TEST Inhibition of Bacterial Growth; detection method Absorption (OD600); MEDIA CAMHB; plate type 384well; NBS; CORNING #3640; time 18 hr.
The test system of experiment [2] is Klebsiella pneumoniae. The settings on record: ASSAY_TEST Inhibition of Bacterial Growth; detection method Absorption (OD600); MEDIA CAMHB; plate type 384well; NBS; CORNING #3640; time 18 hr.
Description: (§2) Antibacterial activity against Klebsiella pneumoniae MDR ATCC 70063 (CO-ADD:GN_003); MIC in CAMBH media using NBS plates, by OD(600)
Another experiment deals with Pseudomonas aeruginosa. The settings on record: ASSAY_TEST Inhibition of Bacterial Growth; detection method Absorption (OD600); MEDIA CAMHB; plate type 384well; NBS; CORNING #3640; time 18 hr.
The test system of experiment [3] is Candida albicans. The settings on record: ASSAY_TEST Inhibition of Fungal Growth; detection method Absorption (OD530); plate type 384well; NBS; CORNING #3640.
Description: (§3) Antifungal activity against Candida albicans ATCC 90028 (CO-ADD:FG_001); MIC in YNB media using NBS plates, by OD630
Experiment [4] relates to Escherichia coli. Kind of experiment: microbe, parasite or virus in culture. The settings on record: ATCC 25922, 18 h, ASSAY_TEST Inhibition of Bacterial Growth, detection method Absorption (OD600), MEDIA CAMHB, plate type 384well, NBS, CORNING #3640.
Description: as §1
For experiment [5], the system named is Klebsiella pneumoniae. Kind of experiment: microbe, parasite or virus in culture. The settings on record: ATCC 700603, 18 h, ASSAY_TEST Inhibition of Bacterial Growth, detection method Absorption (OD600), MEDIA CAMHB, plate type 384well, NBS, CORNING #3640.
Description: as §2
Experiment [6] has as its system Candida albicans. Kind of experiment: microbe, parasite or virus in culture. The settings on record: ATCC 90028, ASSAY_TEST Inhibition of Fungal Growth, detection method Absorption (OD530), plate type 384well, NBS, CORNING #3640.
Description: as §3

Structures are written as SMILES. A value given as a limit tells only on which side of the number the result lay.

Description for Acinetobacter baumannii: Antibacterial activity against Acinetobacter baumannii ATCC 19606 (CO-ADD:GN_034); MIC in CAMBH media using NBS plates, by OD600
Description for Cryptococcus neoformans: Antifungal activity against Cryptococcus neoformans H99 ATCC 208821 (CO-ADD:FG_002); MIC in YNB media using NBS plates, by Resazurin OD(600-570)
Description for Pseudomonas aeruginosa: Antibacterial activity against Pseudomonas aeruginosa ATCC 27853 (CO-ADD:GN_042); MIC in CAMBH media using NBS plates, by OD(600)
Description for Staphylococcus aureus: Antibacterial activity against Staphylococcus aureus MRSA ATCC 43300 (CO-ADD:GP_020); MIC in CAMBH media, using NBS plates, by OD(600)

The CC50 is the concentration giving 50% cytotoxicity. A higher CC50 goes with lower toxicity to the cells. On to `COc1cccc2c1C(=O)c1c(O)c3c(c(O)c1C2=O)C[C@@](O)(C(C)=O)C[C@@H]3OC1CC(N)C(O)C(C)O1.Cl` (stereo partly specified), for which, in the experiment on HEK293, the CC50 was found to be 148 nM. The MIC with Staphylococcus aureus is 5 µM; in the experiment with Escherichia coli [1], over 10 µM; with Cryptococcus neoformans, over 10 µM; in the experiment on Acinetobacter baumannii it was over 10 µM; against Klebsiella pneumoniae [2], over 10 µM; in the experiment with Pseudomonas aeruginosa it was over 10 µM. The MIC against Candida albicans [3] was over 10 µM.
`C[C@H]1COc2c(N3CCN(C)CC3)c(F)cc3c(=O)c(C(=O)O)cn1c23.C[C@H]1COc2c(N3CCN(C)CC3)c(F)cc3c(=O)c(C(=O)O)cn1c23.O` [LEVOFLOXACIN]: the MIC with Escherichia coli [4] was at most 0.0781 µM; in the experiment on Klebsiella pneumoniae [5] it was 2.5 µM; with Staphylococcus aureus it was 0.625 µM; in the experiment with Cryptococcus neoformans it was over 10 µM; in the experiment with Acinetobacter baumannii it was 2.5 µM; in the experiment with Pseudomonas aeruginosa, 0.625 µM. Besides, in the experiment on Candida albicans [6], the MIC is over 10 µM. Moreover, in the experiment with HEK293 (Homo sapiens, ATCC CRL1573, HEK293), the CC50 is over 10000 nM.
